One assay has as its target T1, IKKε (Homo sapiens, UniProt Q14164).
T1 construct: His-tag; made in house; host or cells: Sf9 insect cells
T1 sequence (Q14164 1-716): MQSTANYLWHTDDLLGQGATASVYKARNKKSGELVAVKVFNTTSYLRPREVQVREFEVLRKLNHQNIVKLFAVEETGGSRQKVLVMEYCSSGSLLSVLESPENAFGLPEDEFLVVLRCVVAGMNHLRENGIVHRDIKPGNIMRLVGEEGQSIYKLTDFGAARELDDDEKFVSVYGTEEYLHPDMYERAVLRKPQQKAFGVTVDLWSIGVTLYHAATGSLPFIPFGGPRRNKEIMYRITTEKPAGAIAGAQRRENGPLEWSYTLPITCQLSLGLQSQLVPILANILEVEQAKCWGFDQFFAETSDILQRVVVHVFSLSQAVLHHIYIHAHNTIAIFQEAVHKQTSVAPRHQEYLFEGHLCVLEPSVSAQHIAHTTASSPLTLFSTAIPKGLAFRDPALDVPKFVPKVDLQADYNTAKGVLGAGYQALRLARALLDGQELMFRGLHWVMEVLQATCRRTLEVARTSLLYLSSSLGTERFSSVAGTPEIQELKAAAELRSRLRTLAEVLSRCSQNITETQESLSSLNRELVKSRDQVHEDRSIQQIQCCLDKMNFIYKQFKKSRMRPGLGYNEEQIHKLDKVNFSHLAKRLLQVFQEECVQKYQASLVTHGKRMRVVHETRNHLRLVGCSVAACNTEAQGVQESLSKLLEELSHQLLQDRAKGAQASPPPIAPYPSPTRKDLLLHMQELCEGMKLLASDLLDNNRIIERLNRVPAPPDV
Put plainly: In-vitro IKKε kinase assay ([γ33]ATP filter-plate). In kind it is biochemical. In a few lines: (§1)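 His-tagged Sf9-expressed kinases at 0.1 or 0.02 μg/ml (TBK1) and 0.1 or 0.015 μg/ml (IKKε) for normal and sensitized formats, with myelin basic protein or casein substrate. ATP was at 2×Km (60 μM TBK1, 32 μM IKKε) plus 0.3 μCi [γ33]ATP. Reactions ran 30-45 min, were captured on P-81 filters, and counts were normalized to DMSO.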

Assay [1] deals with IKKε-mediated phosphorylation of IRF3. Nature of the assay: In-situ phosphorylation of IRF3 (pIRF3 Ser396 ELISA) in HEK293T cells cotransfected with IRF3 and IKKε. Conditions: Homo sapiens, HEK-293T. In kind it is cell-based. A digest of the protocol:
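Cells for the IRF7 Western blots carried IRF7 and TBK1 plasmids, were seeded at 150,000/well, exposed to compound overnight and probed for pSer477/Ser479 IRF7. The ELISA readout used IRF3 + IKKε-cotransfected HEK293T at 20,000/well with 20 h treatment, quantifying pSer396 IRF3 relative to DMSO, plus a parallel CellTiter-Glo viability check.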
For orientation: ELISA stands for enzyme-linked immunosorbent assay.

Another assay concerns the target T2, TBK1 (Homo sapiens, UniProt Q9UHD2).
T2 construct: His-tag; made in house; host or cells: Sf9 insect cells
T2 sequence (Q9UHD2 1-729): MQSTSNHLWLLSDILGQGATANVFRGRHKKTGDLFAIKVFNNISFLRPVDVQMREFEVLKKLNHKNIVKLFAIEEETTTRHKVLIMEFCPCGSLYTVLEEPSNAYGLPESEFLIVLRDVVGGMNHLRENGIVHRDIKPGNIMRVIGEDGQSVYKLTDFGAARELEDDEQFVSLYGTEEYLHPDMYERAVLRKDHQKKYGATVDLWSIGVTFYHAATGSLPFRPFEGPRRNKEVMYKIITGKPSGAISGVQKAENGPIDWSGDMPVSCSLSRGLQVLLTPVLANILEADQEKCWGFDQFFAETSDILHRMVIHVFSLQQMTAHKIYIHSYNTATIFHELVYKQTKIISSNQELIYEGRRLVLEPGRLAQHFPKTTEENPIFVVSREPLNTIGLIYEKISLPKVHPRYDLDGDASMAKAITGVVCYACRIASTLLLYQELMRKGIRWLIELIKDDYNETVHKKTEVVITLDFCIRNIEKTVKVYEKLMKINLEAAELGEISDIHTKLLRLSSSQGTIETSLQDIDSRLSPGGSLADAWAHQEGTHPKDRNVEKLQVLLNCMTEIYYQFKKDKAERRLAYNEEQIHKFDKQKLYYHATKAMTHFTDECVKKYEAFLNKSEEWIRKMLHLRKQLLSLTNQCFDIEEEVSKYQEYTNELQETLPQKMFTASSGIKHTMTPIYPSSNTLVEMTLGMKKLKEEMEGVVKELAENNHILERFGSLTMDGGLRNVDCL
Nature of the assay: In-vitro TBK1 kinase assay ([γ33]ATP filter-plate). In kind it is biochemical. In a few lines:
as §1

Where [2] appears, read: text bins, read-out: IC50 for inhibition of the kinase activity of IKKε.
Where [3] appears, read: HEK293T cells, 20 hours, text bins, read-out: IC50 for inhibition of the in-situ IKKε-mediated phosphorylation of IRF3.
Setting [4] is: text bins, read-out: IC50 for inhibition of the kinase activity of TBK1.
[5] abbreviates: HEK293T cells in culture, Table 3, read-out: pIRF3 ELISA IC50.

The source of these data is patent publication US20150352108A1, “AMINO-PYRIMIDINE COMPOUNDS AS INHIBITORS OF TBK1 AND/OR IKK EPSILON” (Alzheimer's Institute of America, priority 2009, published 2015).

Where two headings read alike, the source gives them in different places.

Consider `CN(C)CCNS(=O)(=O)c1ccc(Nc2nccc(-c3ccc(OC4CCOCC4)c(C#N)c3)n2)cc1` [compound 334, 4-({4-[3-cyano-4-(tetrahydro-2H-pyran-4-yloxy)phenyl]pyrimidin-2-yl}amino)-N-[2-(dimethylamino)ethyl] benzenesulfonamide], for which the IC50 was less than 5 nM on IKKε (setting [2]), 100 to 250 nM in assay [1] (setting [3]) and less than 10 nM on TBK1 (setting [4]).
For the compound `COc1cc(Nc2nccc(-c3ccc(OC4CCOCC4)c(C#N)c3)n2)ccc1C(=O)N1CCN(C)CC1` [compound 354, 5-[2-({3-methoxy-4-[(4-methylpiperazin-1-yl)carbonyl]phenyl}amino)pyrimidin-4-yl]-2-(tetrahydro-2H-pyran-4-yloxy)benzonitrile], the IC50 at IKKε (setting [2]) is less than 5 nM; in assay [1] (setting [3]) it was less than 100 nM; on TBK1 (setting [4]), less than 10 nM.
For the compound `CN1CCC(NS(=O)(=O)c2ccc(Nc3nccc(-c4ccc(OC5CCOCC5)c(C#N)c4)n3)cc2)CC1` [compound 371, 4-({4-[3-cyano-4-(tetrahydro-2H-pyran-4-yloxy)phenyl]pyrimidin-2-yl}amino)-N-(1-methylpiperidin-4-yl)benzenesulfonamide], the IC50 on IKKε (setting [2]) was less than 5 nM; in assay [1] (setting [3]) it was 100 to 250 nM; at TBK1 (setting [4]), less than 10 nM.
The matching figures for `COc1cc(Nc2nccc(-c3ccc(OC4CCOCC4)c(C#N)c3)n2)ccc1C(=O)N1CC(N(C)C)C1` [compound 377, 5-{2-[(4-{[3-(dimethylamino)azetidin-1-yl]carbonyl}-3-methoxyphenyl)amino]pyrimidin-4-yl}-2-(tetrahydro-2H-pyran-4-yloxy)benzonitrile]: less than 5 nM, 100 to 250 nM and less than 10 nM.
In the case of `COc1cc(Nc2nccc(-c3ccc(OC4CCOCC4)c(C#N)c3)n2)ccc1C(=O)NC1CCN(C)CC1` [compound 381, 4-({4-[3-cyano-4-(tetrahydro-2H-pyran-4-yloxy)phenyl]pyrimidin-2-yl}amino)-2-methoxy-N-(1-methylpiperidin-4-yl)benzamide], the IC50 is 0.6 nM on IKKε (Table 3, read-out: IKKε IC50); less than 5 nM at IKKε (setting [2]); 349 nM in assay [1] (setting [5]); 250 to 500 nM in assay [1] (setting [3]); 0.4 nM on TBK1 (Table 3, read-out: TBK1 IC50); less than 10 nM at TBK1 (setting [4]).
For the compound `COc1cc(Nc2nccc(-c3ccc(OC4CCOCC4)c(C#N)c3)n2)ccc1C(=O)N(C)C1CCN(C)C1` (stereo not drawn) [compound 385, 4-({4-[3-cyano-4-(tetrahydro-2H-pyran-4-yloxy)phenyl]pyrimidin-2-yl}amino)-2-methoxy-N-methyl-N-(1-methylpyrrolidin-3-yl)benzamide], the IC50 on IKKε (setting [2]) is less than 5 nM; in assay [1] (setting [3]) it was less than 100 nM; at TBK1 (setting [4]), less than 10 nM.
For the compound `COc1cc(Nc2nccc(-c3ccc(OC4CCOCC4)c(C#N)c3)n2)ccc1S(=O)(=O)N1CCCN(C)CC1` [compound 392, 5-[2-({3-Methoxy-4-[(4-methyl-1,4-diazepan-1-yl)sulfonyl]phenyl}amino)pyrimidin-4-yl]-2-(tetrahydro-2H-pyran-4-yloxy)benzonitrile], the half-maximal inhibitory concentration (IC50) at IKKε (Table 3, read-out: IKKε IC50) was 0.2 nM; at IKKε (setting [2]), less than 5 nM; in assay [1] (setting [5]), 12.2 nM; in assay [1] (setting [3]) it was less than 100 nM; at TBK1 (Table 3, read-out: TBK1 IC50) it was 0.2 nM; at TBK1 (setting [4]) it was less than 10 nM.
Turning to `N#Cc1cc(-c2ccnc(Nc3cccc(N)c3)n2)ccc1OC1CCOCC1` [compound 393, 5-{2-[(3-Aminophenyl)amino]pyrimidin-4-yl}-2-(tetrahydro-2H-pyran-4-yloxy)benzonitrile], the IC50 was less than 5 nM on IKKε (setting [2]), less than 100 nM in assay [1] (setting [3]) and less than 10 nM on TBK1 (setting [4]).
Turning to `N#Cc1cc(-c2ccnc(Nc3cccc(CO)c3)n2)ccc1OC1CCOCC1` [compound 395, 5-(2-{[3-(hydroxymethyl)phenyl]amino}pyrimidin-4-yl)-2-(tetrahydro-2H-pyran-4-yloxy)benzonitrile], the figures for the IC50 (on IKKε (setting [2]); in assay [1] (setting [3]); at TBK1 (setting [4])) were less than 5 nM, less than 100 nM and less than 10 nM, respectively.

For orientation: IC50 means the concentration that inhibits the measured activity by half.
